Common to all, as to assay type: cell-based
The subject of assay [1] is MDA-MB (breast cancer). Briefly: ATP level assay (CellTiter-Glo), percent of control. As to conditions: two hour incubation; for activity at 100 µM: 2 h, compound alone, control DMSO, read-out: POC (percent of control) MDA-MB. In general terms: Cellular ATP, detected with luciferase, serves as a proxy for viable cell number.
In assay [2] the test system is SkBr3 (breast cancer). Described as above. As to conditions: two hour incubation; for activity at 100 µM: Homo sapiens, SK-BR-3, 2 h, compound alone, control DMSO, read-out: POC (percent of control) SkBr3.
For assay [3], the system named is H293 (kidney cancer). Briefly: Cytotoxicity testing, CellTiter-Blue assay (FIG. 9). As to conditions: 100 μM, 24 hour compound incubation, result in words. As to the method:
The cytotoxicity tests were carried out in the following manner. Living cells are known to convert resazurin to the fluorescent compound resorufin. Test systems which rely upon this reaction are commercially available. One such test is known at the Cell Titer Blue Cell Viability test assay from Promega. Cell cultures for each of the identified cancer lines were obtained from ATCC and maintained in Dulbecco's Modified Eagle Medium (DMEM) supplemented with 10% fetal bovine serum (FBS) and pen/strep. As known to those skilled in the art, DMEM typically includes the components identified below.
The test method provides for incubating the cell cultures at 37° C. Additionally, the cell cultures are kept under an atmosphere containing 5% CO2. After allowing for proliferation of the cells, the cells were distributed across a plurality of test cells containing from 100 μL DMEM plus 10% FBS and allowed to attach to the surface of the cells. Typically, the time for attachment will require about 12 hours to about 18 hours. Following attachment, the cells were treated with either a solvent control or the N-benzyl sulfonamide compound of interest dissolved in a suitable solvent such as but not limited to DMSO. Typically, about 18 hours to about 36 hours are required to determine the effect of the N-benzyl sulfonamide compound of interest on cell viability. Following treatment of the cells with the N-benzyl sulfonamide or control, the toxicity of the compound to the cells will be determined by addition of 10 μl of CellTiter-Blue reagent, i.e. resazurin. Typically, the resazurin is added between about 18 hours to about 36 hours after treating the cells with the N-benzyl sulfonamides or the control. The cells are allowed to consume and convert the resazurin to resorufin for about one to four hours. Subsequently, the fluorescence of […] is measured by excitation at 560 nm and recording the emission at 590 nm within an instrument configured to measure fluorescence intensity. Two commercially available systems are the BioTek Cytation 5 plate reader and the Promega Glomax Multi+detection system. […] The method for determining IC50 values is well known in the art and will not be discussed further. As known to those skilled in the art, IC50 is a quantitative measure that indicates how much of a particular inhibitory substance (e.g. drug) is needed to inhibit, in vitro, a given biological process or biological component by 50%. Therefore, each N-benzyl sulfonamide will be tested over a range of concentrations. Typically, the concentration ranges will be: 6.25 μM, 12.5 μM, 25 μM, 50 μM, and 100 μM. The control in this method is normally dimethyl […] (DMSO) or other solvent suitable for dissolving the compounds to be tested. FIG. 8 depicts the % cell viability for the indicated compounds depicted in FIG. 7.
The Table of FIG. 9 provides the results of cytotoxicity testing a 100 μM concentration of compounds 2, 5-9, 11-12, 14, 16, 18-22 of FIG. 7 against the indicated cancer cell lines using CellTiter-Blue assay with 24 hour compound incubation time. FIG. 9 reflects the percent reduction in cell viability resulting from the treatment of the indicated cancer cell lines with the indicated compounds. As indicated by the boxed values in FIG. 9, compounds 2, 5, and 6 would be considered effective against H293. […] The Table of FIG. 10 provides a comparison of the IC50 values of select compounds from FIG. 7 to the IC50 values of two known anti-cancer sulfonamides, ABT-751 and Indisulam. As indicated by FIG. 10, the identified compounds performed remarkably better than the known anti-cancer agents. Thus, the identified compounds are expected to have greater anti-cancer potency.
On the technique in general: The colour change of resazurin is a common sign of viable cells or microbes.

The mark [4] stands for this setting: compound 100 uM + 2DG (about 10-20 mM).
[5] abbreviates: compound 100 uM + rotenone (approximately 1.25 μM).

This note sets out measurements from patent publication US20230266302A1, “SYNTHESIS AND USE OF N-BENZYL SULFONAMIDES” (THE UNIVERSITY OF TULSA, priority 2020, published 2023).

Molecules are shown by their SMILES.

For the compound `Cc1cccc2c(CNS(=O)(=O)c3ccccc3)c[nH]c12` [Compound 6, N-[(7-methyl-1H-indol-3-yl)methyl]benzenesulfonamide], the activity at 100 µM in assay [1] was 57.2%; in assay [2], 97%. Further, the “POC (percent of control) MDA-MB” value in assay [1] (setting [4]) is listed as 58.5% of control; in assay [1] (setting [5]), 67.3% of control. The figures for the “POC (percent of control) SkBr3” value in assay [2] (setting [4]) and in assay [2] (setting [5]) were 55.9% of control and 79.4% of control, respectively. Also, in assay [3], the “percent reduction in cell viability, H293” value (shortened to “percent reduction”) is listed as “effective”.
Take `O=S(=O)(NCc1c[nH]c2ccccc12)c1ccc(Cl)cc1` [Compound 2, N-[(1H-indol-3-yl)methyl]-4-chlorobenzenesulfonamide]: the activity at 100 µM in assay [1] turned out to be 48.1%; in assay [2], 72.6%. The “POC (percent of control) MDA-MB” value in assay [1] (setting [4]) is 37.8% of control; in assay [1] (setting [5]), 55.7% of control. Moreover, the “POC (percent of control) SkBr3” value in assay [2] (setting [4]) is 38% of control; in assay [2] (setting [5]), 72.6% of control. In assay [3], the “percent reduction” value is listed as “effective”.
Consider `Cc1ccc(S(=O)(=O)NCc2c[nH]c3cccc(Br)c23)cc1` [Compound 5, N-[(4-bromo-1H-indol-3-yl)methyl]-4-methylbenzenesulfonamide], for which the activity at 100 µM is 54.4% in assay [1] and 71.1% in assay [2]. Besides, the “POC (percent of control) MDA-MB” value is reported as 24.7% of control in assay [1] (setting [4]) and 24.6% of control in assay [1] (setting [5]). The “POC (percent of control) SkBr3” value is recorded as 37.1% of control in assay [2] (setting [4]) and 60% of control in assay [2] (setting [5]). Besides, the “percent reduction” value in assay [3] was “effective”.
